Where two headings read alike, the source gives them in different places.
Assays:
[1] = system: A549 cells; assay: cells; assay type: cell-based; conditions: for IC50: Homo sapiens
[2] = molecular target: MRP1 (Homo sapiens, UniProt P33527); assay: cell-based
[3] = in vitro; conditions: human, IC50 etoposide-induced growth inhibition
[4] = system: HEK control cells; assay: cells; assay type: cell-based; conditions: Homo sapiens
[5] = A549, read-out: IC50 growth inhibition, co-treatment with 10 nM HN2
[6] = A549, read-out: IC50 growth inhibition, drug alone

MRP1, sequence (P33527 whole entry): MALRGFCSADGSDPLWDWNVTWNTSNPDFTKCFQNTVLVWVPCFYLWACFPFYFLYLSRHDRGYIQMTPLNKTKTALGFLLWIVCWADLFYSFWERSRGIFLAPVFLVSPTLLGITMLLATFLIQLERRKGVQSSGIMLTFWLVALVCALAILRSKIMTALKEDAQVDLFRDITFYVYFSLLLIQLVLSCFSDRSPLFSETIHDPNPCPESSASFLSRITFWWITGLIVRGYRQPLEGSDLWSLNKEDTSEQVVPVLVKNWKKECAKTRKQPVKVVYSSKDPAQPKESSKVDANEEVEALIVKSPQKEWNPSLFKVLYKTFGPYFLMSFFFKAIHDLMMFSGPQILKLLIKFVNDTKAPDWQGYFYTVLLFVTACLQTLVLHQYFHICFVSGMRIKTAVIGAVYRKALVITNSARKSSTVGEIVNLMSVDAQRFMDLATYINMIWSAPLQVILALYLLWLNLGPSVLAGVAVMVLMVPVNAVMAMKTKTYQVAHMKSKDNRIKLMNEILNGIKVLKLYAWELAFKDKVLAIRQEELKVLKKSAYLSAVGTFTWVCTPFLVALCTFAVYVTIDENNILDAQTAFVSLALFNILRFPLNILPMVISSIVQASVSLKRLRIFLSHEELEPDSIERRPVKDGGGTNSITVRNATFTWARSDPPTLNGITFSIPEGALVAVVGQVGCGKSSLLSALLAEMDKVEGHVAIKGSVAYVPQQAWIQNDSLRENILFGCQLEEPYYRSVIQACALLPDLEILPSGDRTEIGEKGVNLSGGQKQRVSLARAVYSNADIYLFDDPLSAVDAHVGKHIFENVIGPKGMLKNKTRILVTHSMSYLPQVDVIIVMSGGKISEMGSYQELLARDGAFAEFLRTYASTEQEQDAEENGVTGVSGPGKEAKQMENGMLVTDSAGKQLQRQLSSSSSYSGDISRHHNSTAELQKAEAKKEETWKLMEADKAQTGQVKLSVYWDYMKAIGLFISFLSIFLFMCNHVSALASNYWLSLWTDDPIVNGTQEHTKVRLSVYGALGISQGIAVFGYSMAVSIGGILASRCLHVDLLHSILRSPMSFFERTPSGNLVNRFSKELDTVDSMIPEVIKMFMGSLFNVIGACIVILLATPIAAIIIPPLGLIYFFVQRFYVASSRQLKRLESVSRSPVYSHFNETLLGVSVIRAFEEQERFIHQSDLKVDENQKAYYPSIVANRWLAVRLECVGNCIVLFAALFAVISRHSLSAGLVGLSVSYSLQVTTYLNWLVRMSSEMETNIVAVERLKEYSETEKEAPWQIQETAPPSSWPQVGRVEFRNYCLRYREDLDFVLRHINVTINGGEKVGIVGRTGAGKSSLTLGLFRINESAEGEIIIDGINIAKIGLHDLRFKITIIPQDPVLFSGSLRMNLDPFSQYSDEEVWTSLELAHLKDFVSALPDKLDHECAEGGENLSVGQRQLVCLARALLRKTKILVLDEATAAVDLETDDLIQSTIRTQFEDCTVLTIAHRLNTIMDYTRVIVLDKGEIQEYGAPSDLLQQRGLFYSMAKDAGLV

SMILES: CN(C)C(=O)CCSC(SCCC(=O)O)c1cccc(/C=C/c2ccc3ccc(Cl)cc3n2)c1 (stereo not drawn) [MK-571]
- Increase in sensitivity to MRP1 substrate drugs [1]: six-fold

SMILES: CN(Cc1cnc2nc(N)nc(N)c2n1)c1ccc(C(=O)N[C@@H](CCC(=O)O)C(=O)O)cc1 [Methotrexate, methotrexate]
- IC50 [1, 5]: 48 nM
- IC50 [1, 6]: 230 nM

SMILES: CC[C@]1(O)C[C@H]2CN(CCc3c([nH]c4ccccc34)[C@@](C(=O)OC)(c3cc4c(cc3OC)N(C=O)[C@H]3[C@@](O)(C(=O)OC)[C@H](OC(C)=O)[C@]5(CC)C=CCN6CC[C@]43[C@@H]65)C2)C1 [Vincristine, vincristine]
- IC50 [1, 5]: 45 nM
- IC50 [1, 6]: 360 nM

SMILES: CCOC(=O)C#CC(=O)OCC [diethyl acetylenedicarboxylate]
- IC50 [2]: 6 nM

SMILES: COc1cc([C@@H]2c3cc4c(cc3[C@@H](O[C@@H]3O[C@@H]5CO[C@@H](C)O[C@H]5[C@H](O)[C@H]3O)[C@H]3COC(=O)[C@H]23)OCO4)cc(OC)c1O [etoposide]
- IC50 ([3]; co-treated with 10 nM HN2): 42 nM
- IC50 ([3]; etoposide alone): 960 nM
- IC50 ([4]; read-out: IC50 etoposide-induced growth inhibition, co-treatment with 3 nM HN2): 47 nM
- IC50 ([4]; read-out: IC50 etoposide-induced growth inhibition, etoposide alone): 55 nM
- IC50 [1, 5]: 75 nM
- IC50 [1, 6]: 1000 nM

From patent US10786542B2 (priority 2016, dated 2020)
